Drawing on ChEMBL document CHEMBL3774317, “Design and synthesis of novel tamoxifen analogues that avoid CYP2D6 metabolism” (Eur J Med Chem, 2016), this text covers growth for two compounds.

Type in all cases: functional
One assay relates to A498. Description: Cytotoxicity against human A498 cells assessed as cell growth at 0.5 uM after 48 hrs by SRB assay. As to conditions: A498, 48 h, read-out: Activity. In general terms: Sulforhodamine B stains cellular protein and so reports cell mass.
Assay [1] relates to NCI-H226. Description: Cytotoxicity against human NCI-H226 cells assessed as cell growth at 0.5 uM after 48 hrs by SRB assay. As to conditions: NCI-H226, 48 h, read-out: Activity.
The nature of assay [2]: Cytotoxicity against human HCT116 cells assessed as cell growth at 50 uM after 48 hrs by SRB assay. As to conditions: HCT-116, 48 h, read-out: Activity.
Assay [3] has as its system 786-0. Description: Cytotoxicity against human 786-0 cells assessed as cell growth at 5 nM after 48 hrs by SRB assay. As to conditions: 786-0, 48 h, read-out: Activity.
Assay [4] in a line: Cytotoxicity against human MOLT4 cells assessed as cell growth at 0.5 uM after 48 hrs by SRB assay. As to conditions: MOLT-4, 48 h, read-out: Activity.
For assay [5], the system named is 786-0. Description: Cytotoxicity against human 786-0 cells assessed as cell growth at 50 uM after 48 hrs by SRB assay. As to conditions: 786-0, 48 h, read-out: Activity.
A short description of assay [6]: Cytotoxicity against human IGROV1 cells assessed as cell growth at 5 uM after 48 hrs by SRB assay. As to conditions: IGROV-1, 48 h, read-out: Activity.
Assay [7] in a line: Cytotoxicity against human HCC2998 cells assessed as cell growth at 5 uM after 48 hrs by SRB assay. As to conditions: HCC 2998, 48 h, read-out: Activity.
The nature of assay [8]: Cytotoxicity against human HCT116 cells assessed as cell growth at 50 nM after 48 hrs by SRB assay. As to conditions: HCT-116, 48 h, read-out: Activity.
Assay [9] in a line: Cytotoxicity against human COLO205 cells assessed as cell growth at 5 nM after 48 hrs by SRB assay. As to conditions: COLO 205, 48 h, read-out: Activity.
The nature of assay [10]: Cytotoxicity against human HL-60(TB) cells assessed as cell growth at 5 nM after 48 hrs by SRB assay. As to conditions: HL-60, 48 h, read-out: Activity.
The nature of assay [11]: Cytotoxicity against human COLO205 cells assessed as cell growth at 5 uM after 48 hrs by SRB assay. As to conditions: COLO 205, 48 h, read-out: Activity.
A short description of assay [12]: Cytotoxicity against human SF268 cells assessed as cell growth at 50 uM after 48 hrs by SRB assay. As to conditions: SF-268, 48 h, read-out: Activity.
The nature of assay [13]: Cytotoxicity against human UACC62 cells assessed as cell growth at 50 nM after 48 hrs by SRB assay. As to conditions: UACC-62, 48 h, read-out: Activity.
Another assay concerns SK-MEL-5. Description: Cytotoxicity against human SK-MEL-5 cells assessed as cell growth at 0.5 uM after 48 hrs by SRB assay. As to conditions: SK-MEL-5, 48 h, read-out: Activity.
Assay [14] has as its system NCI-H226. Description: Cytotoxicity against human NCI-H226 cells assessed as cell growth at 50 nM after 48 hrs by SRB assay. As to conditions: NCI-H226, 48 h, read-out: Activity.
Assay [15] in a line: Cytotoxicity against human SF295 cells assessed as cell growth at 5 uM after 48 hrs by SRB assay. As to conditions: SF-295, 48 h, read-out: Activity.
Assay [16] in a line: Cytotoxicity against human RPMI8226 cells assessed as cell growth at 0.5 uM after 48 hrs by SRB assay. As to conditions: RPMI-8226, 48 h, read-out: Activity.
Assay [17] can be described thus: Cytotoxicity against human Caki1 cells assessed as cell growth at 5 nM after 48 hrs by SRB assay. As to conditions: CAKI-1, 48 h, read-out: Activity.
The next assay has as its system NCI-H322M. Description: Cytotoxicity against human NCI-H322M cells assessed as cell growth at 10^-7 M after 48 hrs by SRB assay. As to conditions: read-out: Activity.
The nature of assay [18]: Cytotoxicity against human HL-60(TB) cells assessed as cell growth at 10^-4 M after 48 hrs by SRB assay. As to conditions: HL-60, 48 h, read-out: Activity.
Another assay has as its system MDA-MB-468. Description: Cytotoxicity against human MDA-MB-468 cells assessed as cell growth at 10^-4 M after 48 hrs by SRB assay. As to conditions: MDA-MB-468, 48 h, read-out: Activity.
The nature of assay [19]: Cytotoxicity against human SNB19 cells assessed as cell growth at 10^-4 M after 48 hrs by SRB assay. As to conditions: SNB-19, 48 h, read-out: Activity.
Assay [20] deals with SK-MEL-2. Description: Cytotoxicity against human SK-MEL-2 cells assessed as cell growth at 10^-8 M after 48 hrs by SRB assay. As to conditions: SK-MEL-2, 48 h, read-out: Activity.
A further assay deals with SN12C. Description: Cytotoxicity against human SN12C cells assessed as cell growth at 10^-8 M after 48 hrs by SRB assay. As to conditions: read-out: Activity.
A short description of assay [21]: Cytotoxicity against human BT549 cells assessed as cell growth at 10^-5 M after 48 hrs by SRB assay. As to conditions: BT-549, 48 h, read-out: Activity.
A short description of assay [22]: Cytotoxicity against human BT549 cells assessed as cell growth at 10^-7 M after 48 hrs by SRB assay. As to conditions: BT-549, 48 h, read-out: Activity.
The nature of assay [23]: Cytotoxicity against human IGROV1 cells assessed as cell growth at 10^-7 M after 48 hrs by SRB assay. As to conditions: IGROV-1, 48 h, read-out: Activity.
In a further assay the test system is NCI-H522. Description: Cytotoxicity against human NCI-H522 cells assessed as cell growth at 10^-6 M after 48 hrs by SRB assay. As to conditions: NCI-H522, 48 h, read-out: Activity.
Assay [24] is described as follows: Cytotoxicity against human RPMI8226 cells assessed as cell growth at 10^-6 M after 48 hrs by SRB assay. As to conditions: RPMI-8226, 48 h, read-out: Activity.
A short description of assay [25]: Cytotoxicity against human RPMI8226 cells assessed as cell growth at 10^-4 M after 48 hrs by SRB assay. As to conditions: RPMI-8226, 48 h, read-out: Activity.
The nature of assay [26]: Cytotoxicity against human HCC2998 cells assessed as cell growth at 10^-6 M after 48 hrs by SRB assay. As to conditions: HCC 2998, 48 h, read-out: Activity.
Assay [27] in a line: Cytotoxicity against human TK10 cells assessed as cell growth at 10^-6 M after 48 hrs by SRB assay. As to conditions: TK-10, 48 h, read-out: Activity.
Assay [28] relates to SK-MEL-2. Description: Cytotoxicity against human SK-MEL-2 cells assessed as cell growth at 10^-5 M after 48 hrs by SRB assay. As to conditions: SK-MEL-2, 48 h, read-out: Activity.
Assay [29] concerns 786-0. Description: Cytotoxicity against human 786-0 cells assessed as cell growth at 10^-6 M after 48 hrs by SRB assay. As to conditions: 786-0, 48 h, read-out: Activity.
A short description of assay [30]: Cytotoxicity against human UO31 cells assessed as cell growth at 10^-6 M after 48 hrs by SRB assay. As to conditions: UO-31, 48 h, read-out: Activity.
Assay [31] is described as follows: Cytotoxicity against human UO31 cells assessed as cell growth at 10^-5 M after 48 hrs by SRB assay. As to conditions: UO-31, 48 h, read-out: Activity.
The next assay deals with T47D. Description: Cytotoxicity against human T47D cells assessed as cell growth at 10^-5 M after 48 hrs by SRB assay. As to conditions: read-out: Activity.
Assay [32] in a line: Cytotoxicity against human TK10 cells assessed as cell growth at 10^-4 M after 48 hrs by SRB assay. As to conditions: TK-10, 48 h, read-out: Activity.
A further assay concerns A549. Description: Cytotoxicity against human A549 cells assessed as cell growth at 10^-4 M after 48 hrs by SRB assay. As to conditions: A549, 48 h, read-out: Activity.
The next assay deals with KM12. Description: Cytotoxicity against human KM12 cells assessed as cell growth at 10^-6 M after 48 hrs by SRB assay. As to conditions: KM12, 48 h, read-out: Activity.
In a further assay the test system is SK-MEL-28. Description: Cytotoxicity against human SK-MEL-28 cells assessed as cell growth at 10^-6 M after 48 hrs by SRB assay. As to conditions: SK-MEL-28, 48 h, read-out: Activity.

As for `CCCCCCCCCC(=O)Oc1ccc(/C(=C(/C)c2ccccc2)c2ccc(OCCN3CCCC3)cc2)cc1`, the growth at 0.5 µM in the assay with A498 stood at 49%; with NCI-H226 [1], 100%; in assay [4], 63%; in the assay on SK-MEL-5, 62%; in assay [16], 61%. Moreover, the growth at 50 µM in [2] was -87%; with 786-0 [5] it was -84%; in [12], -72%. In addition, the growth at 0.005 µM in the assay with 786-0 [3] is 102%; in assay [9] it was 104%; in assay [10], 101%; in assay [17], 88%. For the same compound, the growth at 5 µM came out at 84% in assay [6], 90% in assay [7], 79% in assay [11] and 86% in [15]. Also, the growth at 0.05 µM in assay [8] was found to be 95%; in [13], 99%; in the assay on NCI-H226 [14], 94%.

`C/C(=C(/c1ccc(O)cc1)c1ccc(OCCN2CCCC2)cc1)c1ccccc1`: the results for the growth at 0.1 µM (in the assay on NCI-H322M; in assay [22]; in [23]) were 95%, 100% and 101%, respectively. Moreover, the growth at 100 µM in [18] was -69%; in the assay on MDA-MB-468, -87%; in assay [19], -74%; in assay [25], -57%; in [32] it was -100%; with A549, -96%. Further, the results for the growth at 0.01 µM with SK-MEL-2 [20] and in the assay on SN12C were 97% and 101%, respectively. The growth at 10 µM in [21] was 24%; with SK-MEL-2 [28], -67%; in assay [31] it was -25%; in the assay on T47D, -5%. Further, the growth at 1 µM in the assay with NCI-H522 was determined as 92%; in assay [24] it was 92%; in [26], 94%; in assay [27], 95%; in the assay with 786-0 [29], 89%; in [30], 78%. For the same compound, the results for the growth at 1 µM in the assay on KM12 and with SK-MEL-28 were 95% and 85%, respectively.
